Tests used:
[1] = refractive index (other wavelength) (dimensionless); xn = mol fraction of the nth substance listed; conditions: 100 kPa, Liquid, Wavelength=632.8 nm, Angle minimization by sell rotation
[2] = heat capacity at constant pressure per volume; xn = mol fraction of the nth substance listed; conditions: 100 kPa, Liquid, DSC Calorimetry, x1 = 0.284

CCCCCCCCCCC [undecane] + COC(=O)OC
[1]
Conditions	refractive index
283.01 K, x1 = 0.087	1.3791
283.01 K, x1 = 0.62	1.4074
284.23 K, x1 = 0.094	1.3791
284.23 K, x1 = 0.602	1.4062
285.47 K, x1 = 0.102	1.3791
285.47 K, x1 = 0.58	1.4048
286.63 K, x1 = 0.11	1.3791
286.63 K, x1 = 0.56	1.4035
287.73 K, x1 = 0.118	1.3792
287.73 K, x1 = 0.539	1.4022
288.79 K, x1 = 0.129	1.3795
288.79 K, x1 = 0.515	1.4008
289.51 K, x1 = 0.137	1.3797
289.51 K, x1 = 0.496	1.3997
290.19 K, x1 = 0.147	1.3801
290.19 K, x1 = 0.475	1.3985
290.77 K, x1 = 0.157	1.3805
290.77 K, x1 = 0.46	1.3976
291.19 K, x1 = 0.165	1.3809
291.19 K, x1 = 0.442	1.3966
291.49 K, x1 = 0.173	1.3813
291.49 K, x1 = 0.431	1.396
291.71 K, x1 = 0.179	1.3816
291.71 K, x1 = 0.418	1.3953
291.9 K, x1 = 0.186	1.382
291.9 K, x1 = 0.409	1.3948
292.05 K, x1 = 0.193	1.3824
292.05 K, x1 = 0.398	1.3942
292.17 K, x1 = 0.198	1.3827
292.17 K, x1 = 0.391	1.3938
292.25 K, x1 = 0.202	1.3829
292.25 K, x1 = 0.383	1.3934
292.33 K, x1 = 0.207	1.3832
292.33 K, x1 = 0.376	1.393
292.39 K, x1 = 0.212	1.3835
292.39 K, x1 = 0.371	1.3927
292.44 K, x1 = 0.217	1.3838
292.44 K, x1 = 0.365	1.3924
292.49 K, x1 = 0.22	1.384
292.49 K, x1 = 0.36	1.3921
292.52 K, x1 = 0.225	1.3843
292.52 K, x1 = 0.352	1.3917
292.56 K, x1 = 0.228	1.3845
292.56 K, x1 = 0.349	1.3915
292.59 K, x1 = 0.235	1.3849
292.59 K, x1 = 0.341	1.3911
292.62 K, x1 = 0.238	1.3851
292.62 K, x1 = 0.336	1.3908
292.64 K, x1 = 0.243	1.3854
292.64 K, x1 = 0.331	1.3905
292.65 K, x1 = 0.246	1.3856
292.65 K, x1 = 0.327	1.3903
292.66 K, x1 = 0.251	1.3859
292.66 K, x1 = 0.322	1.39
292.67 K, x1 = 0.255	1.3861
292.67 K, x1 = 0.258	1.3863
292.67 K, x1 = 0.314	1.3896
292.67 K, x1 = 0.318	1.3898
292.68 K, x1 = 0.261	1.3865
292.68 K, x1 = 0.263	1.3866
292.68 K, x1 = 0.266	1.3868
292.68 K, x1 = 0.304	1.389
292.68 K, x1 = 0.307	1.3892
292.68 K, x1 = 0.311	1.3894
303.3 K, x1 = 0.102	1.3708
303.3 K, x1 = 0.2	1.3776
303.3 K, x1 = 0.299	1.3835
303.3 K, x1 = 0.388	1.3891
303.3 K, x1 = 0.5	1.3932
303.3 K, x1 = 0.586	1.3967
303.3 K, x1 = 0.701	1.4014
303.3 K, x1 = 0.793	1.4041
303.3 K, x1 = 0.905	1.4085

[2]
Conditions	heat capacity [J/K/m3]
293.3 K	2050000
293.4 K	2009000
293.5 K	1982000
293.6 K	1953000
293.8 K	1939000
294 K	1925000
294.5 K	1897000
296 K	1878000
297 K	1848000
298 K	1846000
299 K	1832000
300 K	1824000
301 K	1822000
302 K	1818000
303 K	1818000
304 K	1814000
305 K	1810000
306 K	1806000
307 K	1805000
308 K	1803000
309 K	1801000
310 K	1800000
311 K	1797000
312 K	1796000
313 K	1795000
314 K	1793000
315 K	1792000
316 K	1790000
317 K	1789000
318 K	1788000
319 K	1787000
320.01 K	1787000
321 K	1786000
322 K	1785000
323 K	1784000
324.01 K	1783000
325 K	1782000
326 K	1782000
327 K	1780000
328.01 K	1780000
329 K	1780000
330 K	1779000
331 K	1778000
332 K	1778000
333 K	1777000
